The values below come from paper PMC10387993, “New pyrimidine-N-β-D-glucosides: synthesis, biological evaluation, and molecular docking investigations” (Turkish Journal of Chemistry, 2023).

The subject of one data set is calf thymus DNA (CT-DNA). The settings on record: CT-DNA binding experiments in the literature ref [32]–[33]; cited from earlier work.
For another data set, the system named is C6 (Rat brain glioma). As to the kind of experiment: cells. The format is cell-based. Particulars: C6, MTT. As for the experimental part: (§1) The cell lines were cultured in a cell medium (Dulbecco’s modified eagle’s or RPMI 1640) enriched with 10% (v/v) fetal bovine serum and 2% (v/v) Penicillin-Streptomycin (10,000 U/mL). First, old medium was removed out of the flask when the cells reached approximately 80% confluence. Next, cells were taken from the flasks surface using trypsin-EDTA solution and then subjected to centrifugation. Following, the cell pellet was suspended with fresh media and was inoculated into wells.
(§2) A cell suspension containing approximately 1 × 10^4 cells in 100 μL was seeded into the wells of 96-well culture plates. […]. The final volume of the wells was set to 200 μL by medium. Cell proliferation assay was evaluated by MTT (yellow tetrazolium MTT (3-(4,5-dimethylthiazolyl-2)-2,5-diphenyltetrazolium bromide) methods. Briefly, an MTT stock solution (5 mg of MTT/mL of distilled water) was filtered and kept at −20 °C until use. The cells were exposed to an MTT reagent (consisting of one parts of MTT stock solutions and nine parts of fresh RPMI 1640 without phenol red) for 4 h to form MTT formazan dye followed by the dye dissolved in DMSO with Sorenson’s buffer for 30 min at room temperature and then the plate was measured at 560 nm, with 690 nm as a reference interval, using a microplate reader. Each experiment was repeated at least three times for each cell line.
(§3) IC50 value is a concentration that inhibits half of the cells in vitro. The half maximal inhibitory concentration (IC50) of the test and control compounds was calculated using XLfit5 or excel spreadsheet and represent in μM at 95% confidence intervals. The proliferation assay results were expressed as the percent inhibition according to the following formula: % Inhibition = [1 - (Absorbance of Treatments /Absorbance of DMSO) × 100]. Three dose response parameters (GI50, TGI, LC50) were calculated according to the following formulas using the absorbance measurements of time zero (Tz), control growth (C), and test growth in the presence of drug (Ti). Growth inhibition of 50% (GI50) was calculated from [(Ti-Tz)/(C-Tz)] × 100 = 50, which is the drug concentration resulting in a 50% reduction in the net growth increase in control cells during the drug incubation. The drug concentration resulting in total growth inhibition (TGI) was calculated from Ti = Tz. The LC50 indicating a net loss of cells following treatment was calculated from [(Ti-Tz)/Tz] × 100 = −50.

The next data set has as its system A549. Put plainly: cells. Format: cell-based. Particulars: A549, MTT. As for the experimental part:
as §1, §2, §3

A further data set deals with MCF7. Put plainly: cells. The format is cell-based. Particulars: MCF7, MTT. As for the experimental part: as §1, §2, §3
For the next data set, the system named is HT29. Put plainly: cells. The settings on record: HT29, MTT. The format is cell-based. As for the experimental part: as §1, §2, §3
For the next data set, the system named is Hep3B. As to the kind of experiment: cells. The settings on record: MTT. The format is cell-based. As for the experimental part: as §1, §2, §3
A further data set relates to HeLa. Put plainly: cells. Format: cell-based. The settings on record: MTT. As for the experimental part: as §1, §2, §3
For the next data set, the system named is normal FL cells. Put plainly: in vitro. Format: cell-based. The settings on record: FL normal cells, MTT. The protocol:
as §1, §2, §3

Data set [1] can be described thus: LDH cytotoxic activity assay, A549. The settings on record: human, A549 cells, A549, 25 μg/mL. Format: cell-based. As for the experimental part: as §1
(§4) Approximately 5 × 10^3 cells in 100 μL were placed into 96-well plates as triplicates and treated with 25, 50, 75, and 100 μg/mL concentrations of test compounds at 37 °C with 5% CO2 for 24 h. LDH activity was obtained by determining absorbance at 492–630 nm using a microplate reader.

Data set [2] in a line: LDH cytotoxic activity assay, HeLa. The format is cell-based. The settings on record: human, HeLa cells, 25 μg/mL. As for the experimental part: as §1, §4
Data set [3] in a line: LDH cytotoxic activity assay, FL. Particulars: human, FL cells (normal cells), FL, 25 μg/mL. Format: cell-based. As for the experimental part:
as §1, §4

The nature of data set [4]: LDH cytotoxic activity assay, C6. Format: cell-based. The settings on record: rat, C6 glioma cells, C6, 25 μg/mL. The protocol:
as §1, §4

Data set [5] can be described thus: LDH cytotoxic activity assay, HT29. The format is cell-based. The settings on record: human, HT29 cells, HT29, 25 μg/mL. The protocol:
as §1, §4

Data set [6] is described as follows: LDH cytotoxic activity assay, MCF7. Particulars: human, MCF7 cells, MCF7, 25 μg/mL. Format: cell-based. As for the experimental part: as §1, §4
Data set [7] in a line: LDH cytotoxic activity assay, Hep3B. Format: cell-based. The settings on record: human, Hep3B cells, 25 μg/mL. As for the experimental part:
as §1, §4

Molecules are shown by their SMILES. ≈ marks a conversion by molar mass, not a printed value. Where two headings read alike, the source gives them in different places.

Broadly, the IC50 is the point on the concentration scale where inhibition reaches its midpoint. In the case of `N.N.[Cl][Pt][Cl]` [Cisplatin, cisplatin, reference compound], the “binding constant (Kb)” value in the data set on calf thymus DNA (CT-DNA) is 57300 M⁻¹. Further, the IC50 in the data set with C6 (Rat brain glioma) was determined as 33.08 µg/mL; in the data set with A549 it was 60.49 µg/mL; in the data set on MCF7, 63.79 µg/mL; in the data set with HT29 it was 40.39 µg/mL; in the data set on Hep3B, 48.69 µg/mL; with HeLa, 50.29 µg/mL. Also, the IC50 in the data set on normal FL cells is 52.79 µg/mL.

On to `O=c1[nH]cc(F)c(=O)[nH]1` [Compound 5FU, 5-fluorouracil, reference compound], for which the cytotoxicity at 24 h, 25 μg/mL in [1] is 9.19%; in data set [2] it was 8.83%; in data set [3], 8.44%; in data set [4], 10%; in data set [5], 7.91%; in data set [6] it was 7.69%. Besides, the cytotoxicity at 24 h, 25 μg/mL in [7] came to 9.67%. For the same molecule, the “binding constant (Kb)” value in the data set on calf thymus DNA (CT-DNA) is 97000 M⁻¹. Further, the IC50 was 54.3 µg/mL (≈ 417 µM) in the data set on C6 (Rat brain glioma) (Rattus norvegicus, read-out: IC50); 69.8 µg/mL (≈ 537 µM) in the data set on A549 (Homo sapiens, read-out: IC50); 74.2 µg/mL (≈ 570 µM) in the data set on MCF7 (Homo sapiens, read-out: IC50); 65.2 µg/mL (≈ 501 µM) in the data set on HT29 (Homo sapiens, HT-29, read-out: IC50); 62.9 µg/mL (≈ 483 µM) in the data set on Hep3B (Homo sapiens, read-out: IC50); 61.6 µg/mL (≈ 473 µM) in the data set with HeLa (Homo sapiens, read-out: IC50). Also, the IC50 with normal FL cells (read-out: IC50) came out at 59.1 µg/mL (≈ 454 µM).
